Measurements: US9125406B2, “Methods and compositions for control of cabbage looper, trichoplusia ni” (Simon Fraser University, priority 2008, dated 2015)

System: third instar T. ni larvae
Test: Leaf disk choice feeding deterrence bioassay
Type: in vivo, Trichoplusia ni
Conditions: Table 3, 1,4-dialkoxybenzenes; feeding deterrence at 50 μg/cm^2
Text: Cabbage plants (Brassica oleraceae var. Stonehead) used in the bioassays were routinely grown in plastic pots with a mixture of sandy loam soil and peat moss (4:1) in a greenhouse at the University of British Columbia, Vancouver, BC, Canada. Leaves were collected from cabbage plants that were 5-6 weeks old.
T. ni larvae and moths were obtained from a long established colony (>50 generations) maintained on an artificial diet, Velvetbean Caterpillar Diet No. F9796 [Bio-Sery Inc. (Frenchtown, NIL)] in the insectary of the University of British Columbia (UBC).
Initial screening for feeding deterrent effects was conducted at 50 μg/cm^2 in feeding deterrent bioassays.
Larvae were given the choice of feeding on two leaf disks, one treated with 10 μL of a solution of the test substance painted on each side and the other treated with a carrier solvent alone. The number of larvae was 25 per treatment.
Feeding deterrence data (percent) for initial screening concentration were analyzed by analysis of variance (ANOVA) after arcsin transformation using statistics software (Statistix 7. Analytical Software, Statistix 7 for Windows 95, 98, NT, 2000. Analytical Software, Tallahassee).

SMILES	FD (%), mean ± SE (n = 25)
CCCOc1ccc(O)cc1 [2c{3}, 4-Propoxy phenol]	feeding stimulants

Same assay, conditions: Trichoplusia, foliar, Table 3, 1,4-dialkoxybenzenes; feeding deterrence at 50 μg/cm^2; read-out: FD (%), mean ± SE (n = 25)

SMILES	pest or weed control at 50 µg/cm2, 50 µg/cm2 [%]
CCCOc1ccc(O)cc1 [2c{3}, 4-Propoxy phenol]	-28 ± 18.4
CC(C)CCOc1ccc(O)cc1 [2c{5}, 4-(3-Methyl-butyloxy)phenol]	29.5 ± 16.6
COc1ccc(OC)cc1 [3c{1,1}, 1,4-Dimethoxy benzene]	9.9 ± 18
CC(C)CCOc1ccc(OCCC(C)C)cc1 [3c{5,5}, 1,4-Di-(3-methyl-butyloxy)benzene]	44 ± 18.3

Same assay, conditions: Trichoplusia, foliar, Table 4, 1,3-dialkoxybenzenes; feeding deterrence at 50 μg/cm^2; read-out: FD (%), mean (SE (n = 25))

SMILES	pest or weed control at 50 µg/cm2, 50 µg/cm2 [%]
COc1cccc(O)c1 [2b{1}, 3-Methoxy phenol]	44.7 ± 17.5
CCOc1cccc(O)c1 [2b{2}, 3-Ethoxy phenol]	-18.7 ± 17.8
CCCOc1cccc(O)c1 [2b{3}, 3-Propoxy phenol]	4 ± 20.4
CC(C)CCOc1cccc(O)c1 [2b{4}, 3-(3-Methyl-butyloxy)phenol]	-5.8 ± 18.7
COc1cccc(OC)c1 [3b{1,1}, 1,3-Dimethoxy benzene]	20.4 ± 19.1
CC(C)CCOc1cccc(OCCC(C)C)c1 [3b{5,5}, 1,3-Di-(3-methyl-butyloxy)benzene]	-12.2 ± 18.8

Same assay, conditions: Trichoplusia, foliar, Table 5, 1,2-dialkoxybenzenes; feeding deterrence at 50 μg/cm^2; read-out: FD (%), mean ± SE (n = 25)

SMILES	pest or weed control at 50 µg/cm2, 50 µg/cm2 [%]
COc1ccccc1O [1-hydroxy-2-methoxybenzene]	-7.5
CCOc1ccccc1O [2a{2}, 2-Ethoxy phenol]	-5.3
CCCOc1ccccc1O [2a{3}, 2-Propoxy phenol]	-12 ± 20
CCCCOc1ccccc1O [2a{4}, 2-Butoxy phenol]	12 ± 20.3
C=CCOc1ccccc1O [2a{6}, 2-Allyloxy phenol]	31.1 ± 15.5
CCOc1ccccc1OCC [3a{2,2}, 1,2-Diethoxy benzene]	-2.1
CCCOc1ccccc1OCCC [3a{3,3}, 1,2-Dipropoxy benzene]	26.2 ± 17.6

Same assay, conditions: Trichoplusia, foliar, Table 7, second lots and purified isomers; 50 μg/cm^2; read-out: F.D (%) Mean ± SE N = 25

SMILES	pest or weed control at 50 µg/cm2, 50 µg/cm2 [%]
C=CCc1c(OC)cccc1OCCC [5b{3, 1} y (100% y), 1-methoxy-2-allyl-3-propoxy-benzene]	100

Same assay, conditions: Trichoplusia, foliar, read-out: FD (%), mean ± SE (n = 25)

SMILES	pest or weed control at 50 µg/cm2, 50 µg/cm2 [%]
COc1ccccc1OC [3a{1,1}, 1,2-Dimethoxy benzene]	26 ± 17.6

System: T. ni moths
Test: Oviposition choice (deterrence) bioassay on cabbage leaves
Type: in vivo, Trichoplusia ni
Conditions: Trichoplusia, 48 h, Table 7, second lots and purified isomers; at 0.25%; read-out: OD (%) Mean ± SE N = 35-40

SMILES	pest or weed control at 0.25 % [%]
C=CCc1c(OC)cccc1OCCC [5b{3, 1} y (100% y), 1-methoxy-2-allyl-3-propoxy-benzene]	17 ± 14

Same assay, conditions: Trichoplusia, 48 h, Table 8; at 0.25%; read-out: OD (%) Mean ± SE N = 35-40

SMILES	pest or weed control at 0.25 % [%]
C=CCOc1ccccc1OCCC(C)C [3a{5, 6}, 1-allyloxy-2-isopentoxybenzene]	26 ± 13.5
C=CCOc1cccc(OCCC(C)C)c1 [3b{5, 6}, 1-allyloxy-3-isopentoxybenzene]	10 ± 13
